Test results taken from patent US8530404B2, “Compounds and methods for treatment of cancer” (FibroGen, Inc., priority 2005, dated 2013).

Experiments:
[1] = tested on: human A549 lung tumors; test: Subcutaneously implanted human A549 lung tumor mouse xenograft (Example 2); type: in vivo; conditions: for tumor weight at necropsy, Mean / A549 mean tumor volume: 20 mg/kg PO; for increase in mean tumor volume: within 1 week (7 days) from start, 20 mg/kg, vehicle control 45%
Excerpt: Immuno-compromised athymic CD-1 nu/nu nude mice males (5-6 weeks old) were used in this study (Charles River Laboratories, Wilmington, Mass.). Animals were maintained in a HEPA-filtered environment during the experimental period. Cages, food, and bedding were autoclaved. Animal diets were obtained from Harlan Teklad (Madison, Wis.). […] A stock tumor was established by subcutaneously injecting a cell suspension into nude mice. The resulting tumor was maintained in nude mice subcutaneously as tumor stock prior to use. Tumor implantation was performed when the stock tumors were in log phase of growth. Before implantation, tumor tissue was harvested from stock mice and placed in RPMI-1640 medium. Necrotic tissues were dissected away and viable tissues were cut into 1-2 mm^2 pieces. Tumor fragments were then transplanted subcutaneously to the right flank of the nude mice. Treatment (administration of compounds of the present invention) was started when the inoculated tumors reached approximately 100 mm^3, and continued for four weeks. […] Sizes of the primary tumors were measured through the skin with calipers once per week. […] Body weight of the mice in each group was also measured once per week during the experimental period. All animals were sacrificed following thirty-two days of treatment. Primary tumors were excised and weighed on an electronic balance. Blood samples were taken during terminal sacrifice and placed in microhematocrit tubes containing EDTA. Complete Blood Counts (CBC) and reticulocyte analysis were performed with the Cell Dyn 3700 analyzer (Abbott Diagnostics), as described by the manufacturer. Procedures were carried out as described above for Example 1, with the following changes. The human H-460 lung cancer cell line was replaced by the human A549 lung cancer cell line. Xenografted H460 tumors are characterized by a high growth rate, while xenografted A549 tumors progress substantially more slowly. A549 has been characterized extensively. […] Hanze et al., (2003) Biochem Biophys Res Commun 312:571-577; Wedge et al., (2002) Cancer Res 62:4645-4655; and Abdollahi et al., (2003) Cancer Res 63:8890-8898.) Compound B treatment groups (6 mg/kg, 20 mg/kg) were replaced by compound D treatment groups (6 mg/kg, 20 mg/kg). Other experimental parameters were identical to those described in Example 1 above.

[2] = tested on: BNIP3 gene expression; test: BNIP3 gene expression in Kelly neuroblastoma cells; type: cell-based; conditions: Kelly, read-out: fold-increase in BNIP3 mRNA expression
Procedure: To identify compounds useful in the methods of the present invention, the following studies were performed. The effect of compounds of the present invention on expression of various genes associated with anti-tumor activity (e.g., genes having anti-proliferative activity, genes having pro-apoptotic activity, genes having anti-tumor activity, etc.). In these experiments, the effect of compounds on BNIP3, BNIP3L, NDRG1, CDKN1C, and REDD1/RTP801 gene expression in various types of cultured tumor cells line was examined, including Hep3B cells (human hepatocellular carcinoma), Kelly neuroblastoma cells, and MCF7 cells (human breast cancer)
The effects of various compounds of the present invention on the expression of genes associated with tumor growth and progression were examined in Kelly neuroblastoma cells as follows. Kelly neuroblastoma cells were grown in RPMI media. For each experiment, Kelly neuroblastoma cells were added to 96-well tissue culture plates (approximately 40,000 cells per well) such that the plated cells reached confluence the following day. On the following day, the cells were washed and the media replaced with RPMI containing 0.5% FBS. Various compounds of the present invention were added to the cultured cells to a final concentration of 20 μM, and the cells cultured for an additional 20-24 hours. DMSO (0.5%) was added to control cell cultures.
RNA was isolated from the Kelly neuroblastoma cells using a commercial kit and used for the preparation of cDNA. BNIP3, CDKN1C, and 18S RNA levels were measured using commercial kits (18S, Applied Biosystems cat#4319413E); BNIP3, Applied Biosystems cat#HS00969293 MH). RNA levels for BNIP3 and CDKN1C were normalized to that of 18S RNA and is presented as fold-change compared to that observed in DMSO control cultures. Kelly cell NDRG1 and BNIP3L mRNA levels were measured by Affymetrix microarray in a separate study. Cells were harvested after 6 hours incubation with 20 μM test compound or DMSO (0.5%) as control. RNA was isolated and labeled probes were prepared and hybridized to U133 Plus 2.0 Affymetrix microarrays. Changes in gene expression levels are presented as fold change compared to that of control (0.5% DMSO-treated) cultures.

[3] = tested on: NDRG1 gene expression; test: In vivo NDRG1 gene expression in Swiss Webster mice (quantitative PCR); conditions: Mus musculus, iv, 4 h, read-out: fold change in NDRG1 mRNA level
Procedure: The effects of various compounds of the present invention on the expression of genes associated with tumor growth and progression (e.g., expression of genes associated with anti-proliferative effects) were examined in vivo as follows. In these studies, male Swiss Webster mice (25 g) were administered a single intravenous (i.v.) dose of various compounds (60 mg/kg) of the present invention via the tail vein. Four hours after administration of compound, the kidneys and liver were removed and preserved in RNAlater (Ambion). RNA isolation and cDNA synthesis was carried out as follows. Murine kidney tissue was added to TRIzol (Invitrogen) and homogenized using a 5-mm stainless steel bead for 4 minutes at 25 Hz in a Mixer Mill 300 (Qiagen). Homogenates were extracted with chloroform according to the manufacturer's instructions and aqueous supernatants were isolated. The aqueous supernatants were combined with equal volumes of 70% ethanol and then loaded onto RNeasy Mini spin columns (Qiagen). RNA was isolated according to the manufacturer's instructions.
Synthesis of cDNA from the isolated total RNA was carried out using Omniscript reverse transcriptase (Qiagen) and random primers according to the manufacturer's instructions. Measurement of gene expression levels in compound-treated animals and in vehicle-treated control animals was performed by quantitative PCR using TaqMan Universal PCR Master Mix (Applied Biosystems) and TaqMan Assay-on-Demand assays (Applied Biosystems) in a Prism 7000 system instrument (Applied Biosystems), according to manufacturer's instructions. The assays used were as follows: 18S ribosomal RNA, Hs99999901_s1; BNIP3, Mm00833810_g1; BNIP3L, Mm00786306_s1; NDRG1, Mm00440447_m1. Each PCR amplification reaction included a standard curve and a water blank. Data for gene expression levels for BNIP3, BNIP3L, and NDRG1 were normalized to that of 18S ribosomal RNA within each sample. Data is presented as fold change in specific mRNA levels relative to that of non-treated control animals.

Structure (SMILES): O=C(O)CNC(=O)c1nc(Cl)c2ccccc2c1O [Compound A, [(1-Chloro-4-hydroxy-isoquinoline-3-carbonyl)-amino]-acetic acid]
- tumor weight at necropsy, Mean [1]: 0.76 g
- A549 mean tumor volume ([1]; week 0): 100 mm^3
- A549 mean tumor volume ([1]; week 1): 138 mm^3
- A549 mean tumor volume ([1]; week 2): 173 mm^3
- A549 mean tumor volume ([1]; week 3): 241 mm^3
- A549 mean tumor volume ([1]; week 4): 328 mm^3

Structure (SMILES): C[C@H](NC(=O)c1ncc2cc(Oc3ccccc3)ccc2c1O)C(=O)O [Compound B, (S)-2-[(4-Hydroxy-7-phenoxy-isoquinoline-3-carbonyl)-amino]-propionic acid]
- fold induction at 20 µM [2]: 17.2
- fold induction at 60 mg/kg [3]: 0.9

Structure (SMILES): COc1ccc(Oc2ccc3c(O)c(C(=O)NCC(=O)O)ncc3c2)cc1 [Compound C, {[4-Hydroxy-7-(4-methoxy-phenoxy)-isoquinoline-3-carbonyl]-amino}-acetic acid]
- tumor weight at necropsy, Mean [1]: 0.50 g
- A549 mean tumor volume ([1]; week 0): 102 mm^3
- A549 mean tumor volume ([1]; week 1): 124 mm^3
- A549 mean tumor volume ([1]; week 2): 152 mm^3
- A549 mean tumor volume ([1]; week 3): 180 mm^3
- A549 mean tumor volume ([1]; week 4): 208 mm^3
- increase in mean tumor volume [1]: 22%
- fold induction at 20 µM [2]: 2.6
- fold induction at 60 mg/kg [3]: 1

Structure (SMILES): Cc1nc(C(=O)NCC(=O)O)c(O)c2ccc(Oc3ccccc3)cc12 [Compound D, [(4-Hydroxy-1-methyl-7-phenoxy-isoquinoline-3-carbonyl)-amino]-acetic acid]
- tumor weight at necropsy, Mean [1]: 0.58 g
- A549 mean tumor volume ([1]; week 0): 106 mm^3
- A549 mean tumor volume ([1]; week 1): 126 mm^3
- A549 mean tumor volume ([1]; week 2): 148 mm^3
- A549 mean tumor volume ([1]; week 3): 193 mm^3
- A549 mean tumor volume ([1]; week 4): 227 mm^3
- increase in mean tumor volume [1]: 20%
- fold induction at 20 µM [2]: 21.9
- fold induction at 60 mg/kg [3]: 3.6

Structure (SMILES): O=C(O)CNC(=O)c1ncc2cc(Oc3ccc(F)cc3)ccc2c1O [Compound E, {[7-(4-fluoro-phenoxy)-4-hydroxy-isoquinoline-3-carbonyl]-amino}-acetic acid]
- fold induction at 20 µM [2]: 31.8
- fold induction at 60 mg/kg [3]: 1.8
